Measured values as given in US5620997A, “Isothiazolones” (Warner-Lambert Company, priority 1995, dated 1997).

Molecular target: T1, rabbit reticulocyte 15-LO (Oryctolagus cuniculus, UniProt P12530)
T1 construct: rabbit reticulocyte 15-LO; from tissue; host or cells: rabbit reticulocytes
T1 sequence (P12530 1-663): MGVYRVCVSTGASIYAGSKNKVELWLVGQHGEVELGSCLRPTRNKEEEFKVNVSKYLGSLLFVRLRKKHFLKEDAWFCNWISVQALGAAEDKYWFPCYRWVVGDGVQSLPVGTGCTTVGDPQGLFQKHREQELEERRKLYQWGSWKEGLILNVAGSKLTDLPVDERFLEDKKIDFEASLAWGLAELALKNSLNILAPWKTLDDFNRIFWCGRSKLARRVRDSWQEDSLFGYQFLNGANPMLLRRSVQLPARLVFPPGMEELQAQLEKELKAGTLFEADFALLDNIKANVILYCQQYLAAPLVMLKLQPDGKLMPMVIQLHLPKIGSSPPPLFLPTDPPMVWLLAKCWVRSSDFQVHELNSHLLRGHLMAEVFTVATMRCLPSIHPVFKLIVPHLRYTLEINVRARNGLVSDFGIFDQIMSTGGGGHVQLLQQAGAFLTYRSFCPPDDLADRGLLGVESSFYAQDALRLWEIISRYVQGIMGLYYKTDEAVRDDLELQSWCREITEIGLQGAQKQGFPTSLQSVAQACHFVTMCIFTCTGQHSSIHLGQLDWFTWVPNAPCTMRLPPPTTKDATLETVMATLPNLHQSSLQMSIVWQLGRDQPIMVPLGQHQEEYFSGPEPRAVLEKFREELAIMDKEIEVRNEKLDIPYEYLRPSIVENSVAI
Test: Colorimetric Assay of 15-LO Inhibition
Type: biochemical
Conditions: colorimetric method
Method: The isothiazolones of Formula I are also effective for treating inflammation and atherosclerosis. A characteristic feature of atherosclerosis is the accumulation of cholesteryl ester engorged from foam cells. Foam cells are derived from circulating monocytes which invade artery walls in response to hypercholesterolemia, and mature into tissue macrophages. […] Specifically, representative compounds were evaluated by the methods described by Auerbach, et al., Analytical Biochemistry, 1992;201:375-380. Two in vitro assays were utilized, both utilizing rabbit reticulocyte 15-LO, and linoleic acid as substrate, to enzymatically produce a peroxide oxidation product known as 13(S)-HPODE. N-Benzoyl leucomethylene blue was utilized as a colorimetric reagent for detection and quantification of the peroxide formation. Also, HPLC was utilized to quantify the oxidation following incubation at 4° C. for 10 minutes.
Table 3 gives the concentration of compound required to inhibit 50% of the activity of 15-LO (IC50) when measured by the HPLC method of Auerbach, et al. Table 4 gives the percent inhibition of 15-LO activity when evaluated by the colorimetric method.

| SMILES | inhibition at 10 µM |
| --- | --- |
| COc1ccc(-c2ccc3c(=O)n(CCN(C)C)sc3n2)cc1OC [Example 108] | 65% |
| CN(C)CCn1sc2nc3ccccc3cc2c1=O [Example 109] | 22% |
